Entries after “also recorded” stand apart in the source; their conditions may differ. Counter-ions that a name gives are not always drawn.
Columns and labels:
[1] = tested on: suPAR; experiment: Circulating and urinary suPAR levels (ELISA) in proteinuric animal models; assay type: in vivo, mouse
Description: (§1) Detection of circulating and urinary suPAR levels Mouse suPAR levels from plasma (and/or serum) and urine were evaluated by enzyme-linked immunosorbent assay (ELISA) kit (R&D systems) following the manufacturer's protocol.
(§2) Proteinuric animal models. i) LPS injected mice. Proteinuria was induced with single injection of LPS as described previously (Wei et al., 2008; Wei et al.,). Briefly, mice were injected with LPS (Sigma) i.p at a dose of 10 mg per kg body weight. The mice injected with PBS were used as a control. Twenty-four hours after LPS treatment, urine and blood samples were collected and kidney, femurs, and tibias were harvested from the sacrificed mice.
ii) Pod-Rac1, Inducible EGFP_CA-Rac1 transgenic mice. EGFP_CA-Rac1 transgenic mice were crossed to Nphs1-rtTA (NEF-rtTA) inducer mice to generate double transgenic (dTG, NEF×Rac1) mice. Male mice were used in this study. To induce transgene expression, regular chow was replaced with doxycycline (DOX)-supplemented chow (2,000 ppm; TestDiet). Single transgenic (EGFP_CA-Rac1) mice were used as a control. Twelve days after DOX diet, urine and blood samples were collected and kidney, femurs, and tibias were harvested from the sacrificed mice. Hi) Adiamycin (ADR) injected mice: Proteinuria was induced with single injection of ADR as described previously. […]

[2] = tested on: BM myeloid cells; experiment: Flow cytometric analysis of BM cells (uPAR, Gr-1, Sca-1) in proteinuric animal models; assay type: in vivo, mouse
Description: as §2
ii) Pod-Rac1, Inducible EGFP_CA-Rac1 transgenic mice. EGFP_CA-Rac1 transgenic mice were crossed to Nphs1-rtTA (NEF-rtTA) inducer mice to generate double transgenic (dTG, NEF×Rac1) mice. Male mice were used in this study. To induce transgene expression, regular chow was replaced with doxycycline (DOX)-supplemented chow (2,000 ppm; TestDiet). Single transgenic (EGFP_CA-Rac1) mice were used as a control. Twelve days after DOX diet, urine and blood samples were collected and kidney, femurs, and tibias were harvested from the sacrificed mice. Hi) Adiamycin (ADR) injected mice: Proteinuria was induced with single injection of ADR as described previously. (Wang et al.) Briefly, male BALB/c mice were injected with ADR (Doxorubicin Hydrochloride, Sigma) via the tail vein at a dose of 11 mg per kg body weight. Six days after ADR injection, urine and blood samples were collected and kidney, femurs, and tibias were harvested from the sacrificed mice. iv) TGF β1 transgenic mice: The transgenic mice that express an active form of TGF β1 under the control of murine albumin promoter developed proteinuria as described previously (Kopp et al.). Since the transgene is on the Y chromosome, male mice (<4-week-old) with severe phenotype were used. Littermate female mice were used as a control. v) Nephrotoxic serum (NTS) nephritis model: Proteinuria was induced by injection of NTS as described previously (Kistler et al.). Briefly, male C57BL6 mice were injected i.p with sheep anti-rabbit glomerular basement membrane antibody at a dose of 500 mg per kg body weight on consecutive days. The mice injected PBS were used as a control. Seven days after injection, urine and blood samples were collected and kidney, femurs, and tibias were harvested from the sacrificed mice. vi) BTBR ob/ob diabetic nephropathy (DN) model: The mouse strain BTBR with the ob/ob leptin-deficiency mutation developed severe type 2 diabetes with heavy proteinuria as described previously (Hudkins et al.). Wild-type (BTBR ob^+/+), heterozygous (BTBR ob^+/−), and homozygous (BTBR ob^−/−) mice were obtained by mating heterozygous (BTBR ob^+/−) mice. For DN model, 16-week-old homozygotes (BTBR ob^−/−) were used. Wild-type (BTBR ob^+/+) or heterozygote (BTBR ob^+/−) littermates were used as controls.
Purification of mouse PBLs and BMCs. To collect blood, mice were anesthetized, then the blood was drawn from posterior vena cava into acid-citrate-dextrose (ACD, Sigma) solution-containing 1 ml syringe. After lysis of red blood cells (RBCs), blood leukocytes were washed and counted. For BMCs purification, femurs and tibias were taken and flushed with a syringe filled with Hank's balanced salt solution (HBSS, Life Technologies) containing 0.1% bovine serum albumin and 20 mM HEPES (pH 7.4). […]
Flow cytometric analysis. […] And the cells were labeled for 30 minutes on ice with fluorescence-conjugated antibodies: Gr-1-allophycocyanin (APC), uPAR-phycoerythrin (PE), Sca-1-fluorescein isothiocyanate (FITC), c-kit-APC, and irrelevant IgG isotype control antibodies. […]

[3] = tested on: LPS-challenged mice; experiment: LPS-induced proteinuria after pretreatment, albumin creatinine ratio (ACR); assay type: in vivo, mouse; conditions: agent given prior to LPS challenge; urine 24 hours after LPS; compared to LPS alone / isotype control
Description: (§3) Albumin creatinine ratio (ACR) measurement Mouse urine samples were collected and urinary albumin and creatinine were measured by mouse albumin ELISA (Bethyl Labs), and creatinine assay (Cayman chemical) kits according to manufacturers' protocols. The ratio of urinary albumin to creatinine was then calculated.
as §2
In vivo depletion. Anti-Ly6G monoclonal antibody (1A8, BioXcell) or control rat IgG2a antibody (2A3, BioXcell) was injected i.p into mice (500 μg per mouse) 48 hours and 1 hour prior to LPS injection. Neutrophil depletion was confirmed by flow cytometric analysis.
(§4) Treatment of granulocyte colony stimulating factor (G-CSF). Recombinant mouse G-CSF (Shenandoah Biotechology INC) was administrated by daily i.p injection into BALB/c mice at a dose of 4 μg per 20 g body weight for 2 consecutive days. Blood cell counts were determined using a Hemavet 950FS (Drew Scientific).
Treatment of plerixafor. […]

[4] = tested on: NSG mice; experiment: Proteinuria (ACR) in LPS injected NSG mice; assay type: in vivo, mouse; conditions: LPS vs PBS, 24 hours after LPS administration
Description: as §3, §2

[5] = tested on: BM cells; experiment: in vitro LPS stimulation on isolated BM cells; assay type: cell-based, mouse; conditions: LPS 0.1, 1 and 10 μg/ml, 24-hour incubation, dose-dependent
Description: in vitro LPS stimulation on isolated BM cells. The BM cells were isolated from C57BL6 WT mice and treated with PBS or various concentrations of LPS (0.1, 1, and 10 μg/ml). Following 24-hour-incubation at 37 C in a CO2 incubator (5%), the cells and culture supernatants were collected. The cells were stained for uPAR, Sca-1, and Gr-1. The in vitro induction of uPAR+Sca-1^loGr-1^lo cells in total BM cells was determined by triple color-flow cytometric analysis. The culture supernatants were used for suPAR measurement.

[6] = tested on: suPAR; experiment: Plasma suPAR levels (ELISA) in pretreated LPS-challenged mice; assay type: in vivo, mouse; conditions: G-CSF for two consecutive days prior to LPS; 24 hours after LPS; compared to LPS alone
Description: as §1, §2, §4

[7] = ADR-induced nephropathy, male BALB/c, 11 mg per kg tail vein, six days after injection

## COc1cccc2c1C(=O)c1c(O)c3c(c(O)c1C2=O)C[C@@](O)(C(=O)CO)C[C@@H]3O[C@H]1C[C@H](N)[C@H](O)[C@H](C)O1 [ADR, Doxorubicin Hydrochloride]
[1]; [7]
  suPAR levels in the circulation or urine: did not find elevated suPAR levels
[2]; [7]
  percentage of Gr-1^lo myeloid cells in BM: no significant increase

## c1cc(CN2CCCNCCNCCCNCC2)ccc1CN1CCCNCCNCCCNCC1 [plerixafor, Plerixafor]
[3]
  proteinuria (ACR): did not enhance proteinuria

## lipopolysaccharide [LPS]
[4]
  proteinuria (ACR): resulting in proteinuria; also recorded: caused proteinuria
[1]; NSG mice, LPS vs PBS, 24 hours after LPS administration
  suPAR levels in blood and urine: elevated suPAR levels in both blood and urine; also recorded: enhanced blood suPAR levels
[2]; LPS vs PBS injected mice, 24 hours
  uPAR-expressing Sca-1/Gr-1^lo BM cell population (myeloid progenitor cells): increased uPAR-expressing BM cell population; also recorded: increased the population of Sca-1^+Gr-1^lo myeloid progenitor cells
[2]; LPS-treated vs PBS-treated mice
  uPAR expression on BM myeloid cells (not peripheral blood myeloid cells): elevated levels of uPAR; also recorded: increased uPAR expression
[2]; NSG mice, LPS vs PBS
  uPAR expression on BM myeloid cells: increased uPAR expression on BM myeloid cells
[2]; WT mice, LPS vs PBS, 24 hours
  Gr-1^lo cells in BM (percentage; ratio to Gr-1^hi): significant increase; also recorded: markedly increased ratio
[5]
  expansion of uPAR-expressing MPCs (uPAR+Sca-1^lo Gr-1^lo cells in total BM cells): stimulated the expansion of uPAR-expressing MPCs
[5]; suPAR ELISA
  suPAR secretion into the culture medium: stimulated

B1: G-CSF: Recombinant mouse G-CSF (Shenandoah Biotechology INC) (protein, UniProt P09920 31-208, looked up)
Granulocyte …: VPLVTVSALPPSLPLPRSFLLKSLEQVRKIQASGSVLLEQLCATYKLCHPEELVLLGHSLGIPKASLSGCSSQALQQTQCLSQLHSGLCLYQGLLQALSGISPALAPTLDLLQLDVANFATTIWQQMENLGVAPTVQPTQSAMPAFTSAFQRRAGGVLAISYLQGFLETARLALHHLA
[3]
  proteinuria (ACR): accelerated proteinuria
[6]
  plasma suPAR levels: increased plasma suPAR levels; also recorded: enhanced plasma suPAR levels
